# Data published in US20130029362A1, “MARKERS AND ASSAYS FOR DETECTION OF NEUROTOXICITY” (priority 2010, published 2013).
# Experiments:
# [1] = system: Female Sprague-Dawley rats; assay: Acute in vivo drug candidate screening for neurotoxicity, biofluid biomarkers by sandwich ELISA or Western blot; conditions: rat, i.p., 30, 60, 90, 120 minutes following dosing, methamphetamine 40 mg/kg
# Method: Anesthesia is performed with intraperitoneal injections of pentobarbital (50 mg/kg). The test substance can also be administered in a single dose by gavage using a stomach tube or a suitable intubation cannula. Animals are fasted prior to dosing. A total of four to eight animals of are used for each dose level investigated.
# 30, 60, 90, and 120 minutes following dosing, the rats are sacrificed by decapitation and blood is obtained by cardiac puncture. The levels of biofluid UCH-L1 and SBDP 150 and GFAP are analyzed by sandwich ELISA or Western blot by using UCH-L1 and SBDP 150 and GFAP specific antibodies.
# [2] = system: Male Sprague-Dawley rats; format: in vivo, rat; conditions: 9 mg/kg s.c., compared with control group
# Method: (§1) Male Sprague-Dawley rats (Harlan: Indianapolis, Ind.) with weight from 180 to 200 g are used. The rats are allowed free access to a normal laboratory diet and chlorinated potable water. All rats are acclimated for at least one week to the housing facilities and diet before being used in the study. The controls in the animal room are set to maintain a temperature of 20° C. to 24° C. and 30% to 70% relative humidity. Rats are maintained on a twelve-hour light/dark cycle.
# (§2) Animals received single subcutaneous injections of Kaininc acid (Sigma, Chemical, St. Louis, Mo., USA) at dose 9 mg/kg and sacrificed at 24 h after injection. Separate control/treatment groups of animals are used. Brain tissues and CSF sample are collected at 6, 24, 48 and 72 h time points after injection.
# (§3) At the appropriate time points, animals are anesthetized with 4% isoflurane in oxygen as a carrier gas for 4 minutes, followed by maintenance anesthesia of 2-3% isoflurane in the same carrier gas. The rats are placed in a stereotaxic instrument and about 100 μl of CSF from the cisterna magna of each animal is collected transcutaneously through 25 gauge needle attached to polyethylene tubing. CSF samples are frozen on dry ice immediately after collection. After CSF collection animals are removed from the stereotaxic instrument and anesthesia nose cone and the animal, still under anesthesia, is immediately sacrificed by decapitation. Cortex, hippocampus, cerebellum and striatum will be rapidly dissected out, rinsed in cold PBS and snap frozen in liquid nitrogen. To obtain brain tissue for IHC animals are euthanized with lethal dose of pentobarbital, transcardically perfused with 4% paraformaldehyde and whole brains are removed, processed and embedded in paraffin.
# Serum and CSF sample concentrations of UCH-L1 are measured using a UCH-L1 sandwich enzyme-linked immunosorbent assay (ELISA) version lb modified from a protocol previously reported (Papa L. et al., 2010; Liu M. et al., 2009). Both mouse monoclonal antibody (capture antibody) and rabbit polyclonal antibody (detection antibody) are made in-house against recombinant human UCH-L1 full length protein and partial protein respectively). Both are affinity purified using target-protein-based affinity column. Their specificity to only target protein (UCH-L1) is confirmed by immunoblotting. Reaction wells are coated with capture antibody (5 μg/mL purified mouse monoclonal anti-human UCHL1) in 0.05 M sodium bicarbonate, pH 9.6 and incubated overnight at 4° C. […] Finally, the wells are developed with substrate solution: Ultra-TMB ELISA 100 μL/well (Pierce #34028) with incubation for 10 min, plate read at 450 nm with a 96-well spectrophotometer (Molecular Device Spectramax 190).
# Serum and CSF sample concentrations of GFAP are measured using a GFAP sandwich enzyme-linked immunosorbent assay (ELISA) version 2a. […]
# [3] = system: Male Sprague-Dawley rats; assay: Kainic acid neurotoxicity rat model, Western blot of brain tissue for αII-spectrin and SBDPs; format: in vivo; conditions: 9 mg/kg s.c.; hippocampus and to a lesser extent cortex
# Method: as §1, §2, §3
# After SDS-gel electrophoresis in Tris-glycine buffer system and electrotransfer, blotting membranes are blocked for 1 hour at ambient temperature in 5% non-fat milk in Tris-buffered saline (TBS) and then in TBS containing 0.05% […] (TBST), then incubated in primary monoclonal anti-αII-spectrin antibodies (Biomol, Plymouth Meeting, Pa., USA) diluted ˜1:3000 (3.5 ul/10 ml) in PBS as recommended by the manufacturer at 4° C. overnight. […] Molecular weight of intact αll-spectrin protein and αll-spectrin breakdown products (SBDPs) are assessed by running alongside rainbow colored molecular weight standards (Amersham, Cat # RPN800V). Semi-quantitative evaluation of levels of αll-spectrin and of its breakdown products SBDP150 and SBDP145 and SBDP120 is performed using computer-assisted high-resolution flatbed scanner Epson XL3500 and densitometric image analysis with Image J software (NIH). […]
# [4] = system: Male Sprague-Dawley rats; assay: Kainic acid neurotoxicity rat model, immunohistochemistry of brain sections; format: in vivo
# Method: as §1, §2, §3
# IHC is performed on paraffin-embedded 6 μm brain sections. Slides are deparaffinized, incubated for 10 min at 95° C. in Trilogy solution (Cell Marque, Hot Springs, Ak.) for antigen retrieval, blocked for endogenous peroxides and incubated with 1 Abs (GFAP, SBDP145, SBDP150, SBDP120 and Casp 3) overnight at 4° C. followed by treatments with secondary Abs (LSAB+, # K0679, Dako). The staining is visualized with 3,3′-diaminobenzidine (DAB) (Dako, Carpinteria, Calif.) for brown color development. Sections are counterstained with Hematoxylin (Dako, Carpinteria, Calif.). Negative controls are performed by treatment only with species-matched secondary antibodies.
# [5] = system: rats; assay: Kainic acid neurotoxicity rat model, biomarkers in blood plasma; format: in vivo; conditions: process of Example 5 with blood plasma in lieu of CSF; as a function of time
# Excerpt: The process of Example 5 is repeated with blood plasma as the subject sample source the rats in lieu of CSF.
# [6] = system: Mouse, rat cortical or hippocampal primary neurons; assay: In vitro drug candidate screening for neurotoxicity, ELISA of cell lysates; format: cell-based; conditions: primary neurons 21 DIV, glutamate 30 min, other agents 24 hours
# Method: Mouse, rat cortical or hippocampal primary neurons are cultured for 21 DIV, and the dose dependent responses of drugs are investigated. Cultured cells are exposed to various concentrations of: Glutamate (0.01 to 1000 μM) in 10 μM glycine both in HBSS; B) 0.01 to 100 μM Kainate in culture media; C) H2O2 (0.001 to 1000 μM) in culture media; C) Zinc (0.01 to 1000 μM) in culture media; D) U0126 (0.001 to 100 μM) in culture media; and E) and equal volume of culture media as a control. Glutamate treatment is performed for 30 minutes after which the cells are washed and the HBSS is replaced with culture media and analyzed. The remaining candidates are treated for 24 hours and analyzed. The levels of intracellular UCH-L1 and SBDP 145 are analyzed following cell lysis and screening of the lysates by ELISA using anti-UCH-L1 and SBDP 145 specific antibodies. The levels of UCH-L1 are increased following exposure particularly to Glutamate and H2O2.
# [7] = 9 mg/kg s.c., hippocampus and cortex, vs control group
smiles,measurement,setting,value
CN[C@@H](C)Cc1ccccc1 [methamphetamine],biofluid GFAP level relative to control animals,[1],increased
same,biofluid SBDP 150 level relative to control animals,[1]; cisplatin 10 mg/kg,increased
same,biofluid UCH-L1 level relative to control animals,[1]; cisplatin 10 mg/kg,increased
"C=C(C)[C@H]1CN[C@H](C(=O)O)[C@H]1CC(=O)O [KA, Kainic acid]",SBDP120 in CSF (ELISA),[2],buildup
same,SBDP145 in CSF (ELISA),[2],buildup
same,SBDP150 in CSF (ELISA),[2],buildup
same,expression of GFAP in CSF (ELISA),[2],increase
same,expression of UCHL 1 in CSF (ELISA),[2],increase
same,SBDP120 breakdown fragment produced by caspase-3 (Western blot),[3],appearance
same,SBDP145 breakdown fragment produced by calpain (Western blot),[3],appearance
same,SBDP150 breakdown fragment produced by calpain (Western blot),[3],appearance
same,intact αII-spectrin level (Western blot),[3],decrease
same,level of GFAP (IHC),[4]; [7],increased level
same,level of SBDP120 (IHC),[4]; [7],increased level
same,level of SBDP145 (IHC),[4]; [7],increased level
same,level of SBDP150 (IHC),[4]; [7],increased level
same,level of αII-spectrin breakdown products (histology images),"[4]; hippocampus of KA treated rats, FIG. 5",increased level
same,level of activated Caspase-3 (histology images),"[4]; hippocampus of KA treated rats, FIG. 7",increased level
same,"Biomarker levels in blood plasma (UCHL 1, GFAP, NF-H)",[5],elevated
OO [H2O2],levels of intracellular UCH-L1,[6],increased
N[C@@H](CCC(=O)O)C(=O)O [Glutamate],levels of intracellular UCH-L1,[6],increased
